From US20110009628A1, “Compounds and Compositions for Modulating Lipid Levels and Methods of Preparing Same” (priority 2009, published 2011)
Counter-ions that a name gives are not always drawn.

What was measured:
in vivo = experiment: in vivo; design: species or system Golden Syrian hamsters; conditions: male, Golden Syrian, hamster, po
Experimental: For testing the efficacy of Compound 141 (phosphate salt of Compound 127) or its enantiomers (Compound 162/Compound 163) the following suspension formulation procedure was developed to make 100 ml of Compound 141 in suspension at 10 mg/ml concentration in 0.1 M tartaric buffer pH. 3 containing 0.5% hydroxypropylcellulose H-type (HPC-H):
Step 1: 1.50 g L-(+)-tartaric acid was dissolved in 100 mL water to prepare a tartaric acid solution. The solution was adjusted to pH 3 with 1.2 mL 5N NaOH solution to provide the tartaric acid buffer (100 mM). Step 2: 0.5 g HPC-H powder was added to 10 mL tartaric acid buffer (100 mM) at 50° C. The slurry was stirred for 30 minutes, and then diluted with 90 mL tartaric acid buffer (100 mM) at room temperature to provide 0.5% HPC-H. Agitation was continued until all particles were dissolved and the solution was completely free of gels. Step 3: 1.20 g Compound 141 (or Compound 162 or Compound 163) and 1.20 g mannitol were mixed and ground through a 120 mesh sieve, then the mixture was ground slightly again. The mixture was dispersed in 100 mL 0.5% HPC-H-L-(+)-Tartaric acid buffer (pH=3), then stirred until the drug dispersed evenly. The final pH was 2.6. All the above procedures were completed at room temperature (˜25° C.). The final concentration of Compound 141 was 10 mg/ml after correction of the salt weight.
The pharmacokinetic profile and bioavailability of Compound 141 (phosphate salt of Compound 127) in male Wistar rats following single intravenous (iv) and oral administration (p.o.) were measured according to the procedures of Example 4 and are summarized in Table 11. The pharmacokinetic profile of Compound 162 in male Golden Syrian masters following oral administration (pox) is summarized in Table 12.

liver LDLR mRNA = experiment: Liver LDLR mRNA in treated hamsters, quantitative real-time RT-PCR; type: in vivo, hamster; conditions: 100 mg/kg, 2 weeks, 10 animals per group, p<0.001
Experimental: To directly correlate the LDL-C and VLDL-C lowering effects of Compound 162 with its ability to upregulate hepatic LDLR expression and down-regulation of PCSK9, at the end of treatment, animals from vehicle and Compound 162 100 mg/kg treated groups were euthanized and levels of liver LDLR and PCSK9 mRNA were individually assessed by quantitative real-time RT-PCR using hamster specific probes. The results represent mean±SEM of 10 animals per group. The liver expression of LDLR mRNA was increased 1.7-fold over control by Compound 162 treatment (p<0.001). […] Thus, these in vivo data confirmed the in vitro effects of Compound 162 in upregulating LDLR mRNA while inhibiting PCSK9 mRNA expressions.

Compound COc1cc2c(cc1OC)C1Cc3ccc(OC)c(OS(=O)(=O)c4cccc(F)c4)c3CN1CC2 (single isomer, unassigned) [Compound 162, 2,3,10-Trimethoxy-5,6,7,8,13,13a-hexahydroisoquinolino[2,1-b]isoquinolin-9-yl 3-fluorobenzenesulfonate phosphate Salt (Enantiomer having positive optical rotation)] has an AUC(0-inf) (in vivo; 15 mg/kg) of 914 ng·h/mL, an AUC(0-t) (in vivo; 15 mg/kg) of 889 ng·h/mL and a Cmax (in vivo; 15 mg/kg) of 195 ng/mL. It also gave an MRT inf (in vivo; 15 mg/kg) of 6.95 h, an MRT last (in vivo; 15 mg/kg) of 6.06 h and a Tmax (in vivo; 15 mg/kg) of 0.5 h. The t1/2z (in vivo; 15 mg/kg) was 5.21 h, the AUC(0-inf) (in vivo; 30 mg/kg) was 2110 ng·h/mL and the AUC(0-t) (in vivo; 30 mg/kg) was 2020 ng·h/mL. For the same compound, the Cmax (in vivo; 30 mg/kg) was 848 ng/mL, the MRT inf (in vivo; 30 mg/kg) was 5.17 h and the MRT last (in vivo; 30 mg/kg) was 3.81 h. For the same compound, the Tmax (in vivo; 30 mg/kg) was 0.5 h, the t1/2z (in vivo; 30 mg/kg) was 6.85 h and the “liver expression of LDLR mRNA” value (liver LDLR mRNA) was 1.7 fold over control.
